Where a name gives a salt, the structure may show the parent alone. Read-outs that look alike come from different tables or passages of the source.

A short description of series [1]: Drug absorption experiment in SD rats, intravenous administration. The conditions noted are these: rat, plasma, tail vein injection. In kind it is in vivo. As for the experimental part:
Blood samples were collected at different time points before and after administration and then separated to prepare plasma. The concentration of the drug in plasma was determined by liquid chromatography-tandem mass spectrometry, and pharmacokinetic parameters were calculated using a non-compartmental model.

Series [2] is described as follows: Hygroscopic behavior test by dynamic vapor sorption (DVS). In kind it is physicochemical. The conditions noted are these: 25° C. The text has this: The experimental method for characterizing an acid salt or a base salt of compound I by dynamic vapor sorption (DVS) was as follows: A small amount of a powder of a polymorph of compound I was taken and placed into a precise sample tray that matches the instrument. After the sample was loaded, the sample tray was sent into the instrument for analysis. In this patent, the instrument model used in the dynamic vapor sorption analysis was Intrinsic PLUS; the experimental parameter was set as follows: A constant temperature of 25° C. was set; the mass percent change rate per unit time (dm/dt)=0.02%/min was used as a criterion for determining that a balance is achieved; the program humidity change cycle was set as follows: The initial relative humidity was 0%, and the endpoint relative humidity was 90%.

The nature of series [3]: Drug absorption experiment in SD rats, intragastric administration. In kind it is in vivo. The following applies: for absolute bioavailability: after dose correction, based on AUC0-t. As for the experimental part:
Blood samples were collected at different time points after administration and then separated to prepare plasma. The concentration of the drug in plasma was determined by liquid chromatography-tandem mass spectrometry, and pharmacokinetic parameters were calculated using a non-compartmental model.

Series [4] in a line: Solid state stability study (purity by HPLC and crystal form change). In kind it is physicochemical. The conditions noted are these: for Initial purity (%): before storage, HPLC.
A short description of series [5]: Equilibrium solubility study in biological media. In kind it is physicochemical. The conditions noted are these: 37 °C, thermodynamic from solid, 37±2° C. The method, then:
In the tests, the solids were suspended in corresponding buffers to formulate suspensions (˜10 mg/mL), and the suspensions were mixed at 37±2° C. After 24 h, samples of the suspensions were taken. The supernatant was filtered, and the concentration was determined.

A short description of series [6]: Transformation of metastable crystal forms on drying or standing (XRPD). In kind it is physicochemical. As for the experimental part:
After being stirred at room temperature for about 3 d, the mixture was filtered under vacuum. The resulting filter cake was metastable crystal form J of compound I. The product was analyzed and characterized by XRPD (FIG. 28).
The mixture was stirred at room temperature for 16 h and filtered. The resulting filter cake was metastable crystal form K of compound I. The product was analyzed and characterized by XRPD (FIG. 29).
The mixture was stirred at room temperature for about 3 d and filtered. The filter cake was dried at 50° C. for 16 h to give metastable crystal form L of compound I. The product was analyzed and characterized by XRPD (FIG. 30).
The mixture was stirred at 5° C. for about 1 d and filtered. The resulting filter cake was metastable crystal form M of compound I. The product was analyzed and characterized by XRPD (FIG. 31).
Crystal form C of compound I was heated to 80° C. at 10° C./min to give metastable crystal form N of compound I. The product was analyzed and characterized by XRPD (FIG. 32).

The mark [7] stands for this setting: 25° C./60% RH, 7 days (long-term storage).
Setting [8] is: 40° C./75% RH, 7 days (accelerated).
[9] abbreviates: 60° C., RH<30%, 7 days (high-temperature).

As for `O=C(O)c1ccc2nc(CN3CCC(Oc4cccc(COc5ccc(Cl)cc5F)n4)CC3)n(C[C@@H]3CCO3)c2c1` [Crystal form A of compound I, (S)-2-((4-((6-((4-chloro-2-fluorophenoxy)methyl)pyridin-2-yl)oxy)piperidin-1-yl)methyl)-1-(oxetan-2-ylmethyl)-1H-benzo[d]imidazole-6-carboxylic acid tromethamine salt (1:1)], the AUC(0-t) was 2440 ng·h/mL in series [1] (2 mg/kg) and 2670 ng·h/mL in series [3] (5 mg/kg). In addition, the values for the Cmax in series [1] (2 mg/kg) and in series [3] (5 mg/kg) were 7640 ng/mL and 847 ng/mL, respectively. For the same compound, the half-life in series [1] (2 mg/kg) is 1.88 h. Further, the “Sample weight change at 80% RH (%)” value in series [2] (DVS, 80% RH) is 1.03%. Besides, the “Whether the crystal form is changed” value in series [2] (after DVS, 0-90% RH) is “No”. Besides, the Tmax in series [3] (5 mg/kg) worked out at 0.25 h. Further, the t1/2 in series [3] (5 mg/kg) is 3.59 h. This compound returned an absolute bioavailability in series [3] of 43.7%. Besides, the “Purity (%)” value in series [4] (setting [7]) came to 99.18%; in series [4] (setting [8]) it was 99.17%; in series [4] (setting [9]) it was 98.83%. Further, the “Initial purity (%)” value in series [4] was found to be 99.30%. Moreover, the solubility (thermodynamic) at 24 h in series [5] (FaSSIF) was determined as 110 µg/mL; in series [5] (FeSSIF), 450 µg/mL; in series [5] (water, H2O), 440 µg/mL.
With `O=C(O)c1ccc2nc(CN3CCC(Oc4cccc(COc5ccc(Cl)cc5F)n4)CC3)n(C[C@@H]3CCO3)c2c1` [crystal form L, (S)-2-((4-((6-((4-chloro-2-fluorophenoxy)methyl)pyridin-2-yl)oxy)piperidin-1-yl)methyl)-1-(oxetan-2-ylmethyl)-1H-benzo[d]imidazole-6-carboxylic acid tromethamine salt (1:1)], the Crystal form transformation result in series [6] (dried under vacuum at room temperature for about 16 h) and in series [6] (let stand in an open flask at room temperature for about 16 h) was “transformed to crystal form D” each time.
Turning to `O=C(O)c1ccc2nc(CN3CCC(Oc4cccc(COc5ccc(Cl)cc5F)n4)CC3)n(C[C@@H]3CCO3)c2c1` [crystal form J, (S)-2-((4-((6-((4-chloro-2-fluorophenoxy)methyl)pyridin-2-yl)oxy)piperidin-1-yl)methyl)-1-(oxetan-2-ylmethyl)-1H-benzo[d]imidazole-6-carboxylic acid tromethamine salt (1:1)], the Crystal form transformation result in series [6] (dried at 40° C. for 16 h) is “transformed to crystal form A”.
Consider `O=C(O)c1ccc2nc(CN3CCC(Oc4cccc(COc5ccc(Cl)cc5F)n4)CC3)n(C[C@@H]3CCO3)c2c1` [Free form of compound I, (S)-2-((4-((6-((4-chloro-2-fluorophenoxy)methyl)pyridin-2-yl)oxy)piperidin-1-yl)methyl)-1-(oxetan-2-ylmethyl)-1H-benzo[d]imidazole-6-carboxylic acid], for which the AUC(0-t) stood at 1280 ng·h/mL in series [1] (1 mg/kg) and 1400 ng·h/mL in series [3] (SD, rat, plasma, po, 5 mg/kg, read-out: AUC0-t). The Cmax stood at 3200 ng/mL in series [1] (1 mg/kg) and 600 ng/mL in series [3] (SD, rat, plasma, po, 5 mg/kg, read-out: Cmax). The half-life in series [1] (1 mg/kg) is 3.89 h; in series [3] (SD, rat, plasma, po, 5 mg/kg) it was 2.84 h. In addition, the Tmax in series [3] (SD, rat, plasma, po, 5 mg/kg, read-out: Tmax) came out at 0.5 h. This compound also yielded an absolute bioavailability in series [3] of 21.8%. Moreover, the “Purity (%)” value came to 98.94% in series [4] (setting [7]), 95.86% in series [4] (setting [8]) and 89.15% in series [4] (setting [9]). For the same compound, the “Initial purity (%)” value in series [4] was 98.98%.
In the case of `O=C(O)c1ccc2nc(CN3CCC(Oc4cccc(COc5ccc(Cl)cc5F)n4)CC3)n(C[C@@H]3CCO3)c2c1` [crystal form K, (S)-2-((4-((6-((4-chloro-2-fluorophenoxy)methyl)pyridin-2-yl)oxy)piperidin-1-yl)methyl)-1-(oxetan-2-ylmethyl)-1H-benzo[d]imidazole-6-carboxylic acid tromethamine salt (1:1)], in series [6] (dried at 50° C. for 24 h), the Crystal form transformation entry is reported as “transformed to crystal form A”.
Consider `O=C(O)c1ccc2nc(CN3CCC(Oc4cccc(COc5ccc(Cl)cc5F)n4)CC3)n(C[C@@H]3CCO3)c2c1` [Crystal form I of compound I, (S)-2-((4-((6-((4-chloro-2-fluorophenoxy)methyl)pyridin-2-yl)oxy)piperidin-1-yl)methyl)-1-(oxetan-2-ylmethyl)-1H-benzo[d]imidazole-6-carboxylic acid tromethamine salt (1:1)], for which the “Purity (%)” value in series [4] (setting [7]) was 98.41%; in series [4] (setting [8]), 98.47%; in series [4] (setting [9]), 98.48%. In series [4], the “Initial purity (%)” value worked out at 98.44%.
Take `O=C(O)c1ccc2nc(CN3CCC(Oc4cccc(COc5ccc(Cl)cc5F)n4)CC3)n(C[C@@H]3CCO3)c2c1` [crystal form N, (S)-2-((4-((6-((4-chloro-2-fluorophenoxy)methyl)pyridin-2-yl)oxy)piperidin-1-yl)methyl)-1-(oxetan-2-ylmethyl)-1H-benzo[d]imidazole-6-carboxylic acid tromethamine salt (1:1)]: the Crystal form transformation result in series [6] (dried at 50° C. for 16 h) is given as “transformed to crystal form B”.
Take `O=C(O)c1ccc2nc(CN3CCC(Oc4cccc(COc5ccc(Cl)cc5F)n4)CC3)n(C[C@@H]3CCO3)c2c1` [Crystal form B of compound I, (S)-2-((4-((6-((4-chloro-2-fluorophenoxy)methyl)pyridin-2-yl)oxy)piperidin-1-yl)methyl)-1-(oxetan-2-ylmethyl)-1H-benzo[d]imidazole-6-carboxylic acid tromethamine salt (1:1)]: the entries for the “Purity (%)” value in series [4] (setting [7]), in series [4] (setting [8]) and in series [4] (setting [9]) were 98.74%, 98.73% and 98.67%, respectively. Further, the “Initial purity (%)” value in series [4] came out at 98.80%.

In general, Cmax refers to the highest concentration seen after dosing. As usually defined, the half-life is the time needed for the level to fall by half in the phase considered. Read a high half-life as slow decline. As usually defined, the Tmax is the time at which the peak concentration occurs. As usually defined, the thermodynamic solubility is the concentration in solution at equilibrium with solid.
